Experiments:
corn [1] = assay: Corn root development in PVC tubes in natural field soil after seed treatment; format: in vivo; conditions: seed treated with 0.7 μl; corn maturity, 3 months after application; PVC tubes about 4 M long; FIG. 1A
Description: In the roots produced in field soil in PVC pipes, adequate water was applied throughout the growing season. Conversely, in the field trial shown in FIG. 1, the plants were subject to severe drought, according to official weather service notices. In both cases, the growth of roots was much greater when produced from seeds treated with the chemical. […] Turning to FIG. 1 in detail, pictured are the development of corn roots from seeds not treated (left) or treated with 0.7 μl of 1-octen-3-ol (right) at the time of corn maturity (that is, 3 months after application of octenol). In FIG. 1A, plants were grown in PVC tubes about 4 M long in natural field soil, and the treated seeds produced roots that exceeded the control by about 50%. Length of roots are indicated in meters (M) by the scale at right.

corn [2] = assay: Corn root length in field grown plants (back hoe trench) after seed treatment; format: in vivo; conditions: seed treatment 0.7 μl, severe drought, control root 30 cm, FIG. 1B
Excerpt: In the roots produced in field soil in PVC pipes, adequate water was applied throughout the growing season. Conversely, in the field trial shown in FIG. 1, the plants were subject to severe drought, according to official weather service notices. In both cases, the growth of roots was much greater when produced from seeds treated with the chemical. […] When grown in the field, that is, in a setting where maximum root length was not impeded by the experiment itself, a similar or better result obtained. In FIG. 1B, roots were exposed in field grown plants with a back hoe trench and photographed. The images were adjusted so that the root volume in each is proportionally sized. In the control shown the root was 30 cm long, and with the treatment the root was 78 cm long to deepest part of the root visible.

corn [3] = assay: Corn field trials 2015, yields after seed treatment; format: in vivo; conditions: seed treatment about 0.7 μl, 2-3 months post-planting
Description: Turning to FIG. 2 in detail, pictured are long-term effects of 1-octen-3-ol (represented as the designation “Omega” on the chart) on yields of corn, yield increases in squash and control of powdery mildew on squash. Treatments in every case were seed treatments with about 0.7 μl of 1-octen-3-ol. […] FIGS. 2A and 2B show yields of corn in field trials, 2015.

squash = assay: Field-grown squash yield after seed treatment; format: in vivo; conditions: seed treatment about 0.7 μl; differences significant at P=0.01; FIG. 2C
Description: (§1) Turning to FIG. 2 in detail, pictured are long-term effects of 1-octen-3-ol (represented as the designation “Omega” on the chart) on yields of corn, yield increases in squash and control of powdery mildew on squash. Treatments in every case were seed treatments with about 0.7 μl of 1-octen-3-ol. […] FIGS. 2C and 2D show yield differences and disease resistance, as indicated by occurrence of powdery mildew from natural infection in field-grown squash following the same seed treatment protocol as above. The differences shown are significant at P=0.01. The yields are weights of fruit/ac. The powdery mildew disease rating is 0=no disease, 1=1 lesion/leaf, 2=2 lesions/leaf and 3=3 lesions per leaf.

powdery mildew = assay: Powdery mildew from natural infection in field-grown squash after seed treatment; format: in vivo; conditions: seed treatment about 0.7 μl, differences significant at P=0.01, FIG. 2D
Description: as §1

corn [4] = assay: Field trials of seed treatment, early-season flooding stress; format: in vivo; conditions: seed treatment 0.7 μl/seed
[5] = moderate toxicity; cited from earlier work
corn [6] = assay: Corn seedling size after seed or urea fertilizer treatment with cyclodextrin/6PP; format: in vivo; conditions: cyclodextrin formulation; 0.2, 2 and 20 μl/seed or μl/g of urea fertilizer; plants about 15 days old; FIG. 4
Description: FIG. 4 illustrates corn seedling size following seed treatments at 0 (CO), 0.2, 2 and 20 μl/seed or of fertilizer with cyclodextrin/6PP at 0 (CO), 0.2, 2 and 20 μl/g of urea fertilizer. Plants were about 15 days old and bars with dissimilar letters denote statistical differences at P=0.01. The formulation systems designated here can be used with many other triggering compounds, signal molecules, or substances. In FIG. 4 is shown data on 6-pentyl pyrone (6PP) used with the same cyclodextrin formulation described above for use with 1-octen-3-ol. 6PP is effective in this use.

Row | Compound | roots exceeding the control (corn [1]) | root length to deepest part of the root visible (corn [2]) | biomass yield of corn versus untreated (corn [3]; FIG. 2A) | grain yield of corn versus untreated (corn [3]; FIG. 2B) | squash yield (weights of fruit/ac) (squash) | disease resistance (powdery mildew disease rating) (powdery mildew) | resistance to flooding stress (corn [4]) | LD 50 [5] | corn seedling size (corn [6])
1 | C=CC(O)CCCCC (stereo not drawn) [1-octen-3-ol] | about 50% | 78 cm | significantly higher yields | significantly higher yields | systemically enhanced | systemically enhanced | resistance to early-season flooding stress | 340 mg/kg | 
2 | CCCCCc1cccc(=O)o1 [6PP, 6-pentyl pyrone] |  |  |  |  |  |  |  |  | effective

From patent publication US11930812B2, “Coating materials for seeds and for particulate materials, including fertilizers” (ADVANCED BIOLOGICAL MARKETING, INC., priority 2017, dated 2024)
